Assay results reported in patent US11185074B2, “Microbiocidal quinoline (thio)carboxamide derivatives” (SYNGENTA PARTICIPATIONS AG, priority 2017, dated 2021).

Legend:
Fusarium culmorum [1] = assay: microbe, parasite or virus in culture; assay type: cell-based; details: read-out: control of Fusarium culmorum
[2] = tested on: Glomerella lagenarium (Colletotrichum lagenarium); assay: Glomerella lagenarium (Colletotrichum lagenarium) / liquid culture (anthracnose); assay type: cell-based; details: Colletotrichum orbiculare; 20 ppm; liquid culture, inhibition of growth photometrically 3-4 days after application; compared to untreated control; read-out: control of Glomerella lagenarium
[3] = tested on: Gibberella zeae (Fusarium graminearum); assay: whole plant or invertebrate; assay type: in vivo; details: in Triticum aestivum, 144 h, read-out: control of Gibberella zeae
[4] = tested on: Botryotinia fuckeliana (Botrytis cinerea); assay: Botryotinia fuckeliana (Botrytis cinerea) / liquid culture (gray mould); assay type: cell-based; details: 72 h, 20 ppm, liquid culture, inhibition of growth photometrically 3-4 days after application, compared to untreated control, read-out: control of Botryotinia fuckeliana
Fusarium culmorum [5] = assay: whole plant or invertebrate; assay type: in vivo, Fusarium culmorum on wheat spikelets cv. Monsun; details: in Triticum aestivum, read-out: control of Fusarium culmorum
[6] = tested on: Magnaporthe grisea (Pyricularia oryzae); assay: microbe, parasite or virus in culture; assay type: cell-based; details: 72 h, read-out: control of Magnaporthe grisea
Sclerotinia sclerotiorum = Sclerotinia sclerotiorum / liquid culture (cottony rot); details: 72 h, read-out: control of Sclerotinia sclerotiorum
Procedure: Sclerotinia sclerotiorum/Liquid Culture (Cottony Rot)
Mycelia fragments of a newly grown liquid culture of the fungus are directly mixed into nutrient broth (Vogels broth). After placing a (DMSO) solution of test compound into a microtiter plate (96-well format) the nutrient broth containing the fungal material is added. The test plates are incubated at 24° C. and the inhibition of growth is determined photometrically 3-4 days after application.

[7] = tested on: Monographella nivalis (Microdochium nivale); assay: Monographella nivalis (Microdochium nivale) / liquid culture (foot rot cereals); assay type: cell-based; details: 96 h, inhibition of growth photometrically 4-5 days after application, compared to untreated control

CCCC(C)CC(C)(CC(F)(F)F)NC(=O)c1cnc2ccccc2c1 (centres unmarked) [E-46] gave an inhibition of growth at 20 ppm (Fusarium culmorum [1]) of at least 80%, an inhibition of growth at 20 ppm [2] of at least 80% and a pest or weed control at 200 ppm [3] of at least 80%. For the same molecule, the inhibition of growth at 20 ppm [4] was at least 80% and the pest or weed control at 200 ppm (Fusarium culmorum [5]) was at least 80%.

With C[C@](CC1CCCC1)(CC(F)(F)F)NC(=O)c1cnc2c(F)cccc2c1 [F-5, N-[(1S)-1-(cyclopentylmeth-yl)-3,3,3-trifluoro-1-methyl-propyl]-8-fluoro-quinoline-3-carboxamide] the inhibition of growth at 20 ppm (Fusarium culmorum [1]) was at least 80%, the melting point was 102 to 105 °C and the inhibition of growth at 20 ppm [6] was at least 80%. The inhibition of growth at 20 ppm [2] was at least 80%, the inhibition of growth at 20 ppm [4] was at least 80% and the pest or weed control at 200 ppm (Fusarium culmorum [5]) was at least 80%. The inhibition of growth at 20 ppm (Sclerotinia sclerotiorum) was at least 80%.

For CC(C)CC(C)(CCc1ccccc1)NC(=O)c1cnc2c(F)cccc2c1 (centres unmarked) [E-8], the inhibition of growth at 20 ppm (Fusarium culmorum [1]) was at least 80%, the melting point was 170 to 175 °C and the inhibition of growth at 20 ppm [6] was at least 80%. It also gave an inhibition of growth at 20 ppm [2] of at least 80%, an inhibition of growth at 20 ppm [4] of at least 80% and an inhibition of growth at 20 ppm (Sclerotinia sclerotiorum) of at least 80%. The inhibition of growth at 20 ppm [7] was at least 80%.

Molecule C/C=C(\C)CC(C)(CC(C)C)NC(=O)c1cnc2c(F)cccc2c1 (centres unmarked) [E-5] has an inhibition of growth at 20 ppm (Fusarium culmorum [1]) of at least 80%, an inhibition of growth at 20 ppm [6] of at least 80% and an inhibition of growth at 20 ppm [2] of at least 80%. It also gave a pest or weed control at 200 ppm [3] of at least 80%, an inhibition of growth at 20 ppm [4] of at least 80% and a pest or weed control at 200 ppm (Fusarium culmorum [5]) of at least 80%. The inhibition of growth at 20 ppm [7] was at least 80%.

Cc1cccc2cc(C(=O)NC(C)(CC3CCCC3)CC(F)(F)F)cnc12 (centres unmarked) [E-64] showed an inhibition of growth at 20 ppm (Fusarium culmorum [1]) of at least 80%, a melting point of 108 to 116 °C and an inhibition of growth at 20 ppm [6] of at least 80%. The inhibition of growth at 20 ppm [2] was at least 80%, the inhibition of growth at 20 ppm [4] was at least 80% and the pest or weed control at 200 ppm (Fusarium culmorum [5]) was at least 80%. The inhibition of growth at 20 ppm (Sclerotinia sclerotiorum) was at least 80% and the inhibition of growth at 20 ppm [7] was at least 80%.

Cc1cccc2cc(C(=O)NC(C)(CC3CC=CCC3)CC(F)(F)F)cnc12 (centres unmarked) [E-53] showed an inhibition of growth at 20 ppm (Fusarium culmorum [1]) of at least 80%, a melting point of 112 to 114 °C and an inhibition of growth at 20 ppm [6] of at least 80%. For the same molecule, the inhibition of growth at 20 ppm [2] was at least 80%, the inhibition of growth at 20 ppm [4] was at least 80% and the inhibition of growth at 20 ppm (Sclerotinia sclerotiorum) was at least 80%. The inhibition of growth at 20 ppm [7] was at least 80%.

CC(C)CC(CC(C)C)NC(=O)c1cnc2c(F)cccc2c1 [E-9] showed an inhibition of growth at 20 ppm (Fusarium culmorum [1]) of at least 80%, a melting point of 170 to 172 °C and an inhibition of growth at 20 ppm [6] of at least 80%. The inhibition of growth at 20 ppm [2] was at least 80%, the pest or weed control at 200 ppm [3] was at least 80% and the inhibition of growth at 20 ppm [4] was at least 80%. It also gave a pest or weed control at 200 ppm (Fusarium culmorum [5]) of at least 80% and an inhibition of growth at 20 ppm [7] of at least 80%.

C=C(C)CC(C)(CC(=C)C)NC(=O)c1cnc2c(F)cccc2c1 [E-2, N-[1,3-dimethyl-1-(2-methylallyl)but-3-enyl]-8-fluoro-quinoline-3-carboxamide] showed an inhibition of growth at 20 ppm (Fusarium culmorum [1]) of at least 80%, a melting point of 116 to 118 °C and an inhibition of growth at 20 ppm [6] of at least 80%. The inhibition of growth at 20 ppm [2] was at least 80%, the pest or weed control at 200 ppm [3] was at least 80% and the inhibition of growth at 20 ppm [4] was at least 80%. The pest or weed control at 200 ppm (Fusarium culmorum [5]) was at least 80% and the inhibition of growth at 20 ppm [7] was at least 80%.

CC1(C[C@](C)(CC(F)(F)F)NC(=O)c2cnc3c(F)cccc3c2)CC1 [F-1, 8-fluoro-N-[(1R)-3,3,3-trifluoro-1-methyl-1-[(1-methylcyclo-propyl)meth-yl]propyl] quinoline-3-carboxamide] showed an inhibition of growth at 20 ppm (Fusarium culmorum [1]) of at least 80%, an inhibition of growth at 20 ppm [6] of at least 80% and an inhibition of growth at 20 ppm [2] of at least 80%. For the same molecule, the pest or weed control at 200 ppm [3] was at least 80%, the inhibition of growth at 20 ppm [4] was at least 80% and the pest or weed control at 200 ppm (Fusarium culmorum [5]) was at least 80%. For the same molecule, the inhibition of growth at 20 ppm [7] was at least 80%.

With CCC(CC)CC(C)(CC(F)(F)F)NC(=O)c1cnc2c(F)cccc2c1 (centres unmarked) [E-45] the inhibition of growth at 20 ppm (Fusarium culmorum [1]) was at least 80%, the inhibition of growth at 20 ppm [6] was at least 80% and the inhibition of growth at 20 ppm [2] was at least 80%. The pest or weed control at 200 ppm [3] was at least 80%, the inhibition of growth at 20 ppm [4] was at least 80% and the inhibition of growth at 20 ppm [7] was at least 80%.

Molecule CC(C)(C)C(CCc1ccccc1)NC(=O)c1cnc2c(F)cccc2c1 (centres unmarked) [E-14] has an inhibition of growth at 20 ppm (Fusarium culmorum [1]) of at least 80%, a melting point of 55 to 65 °C and an inhibition of growth at 20 ppm [6] of at least 80%. The inhibition of growth at 20 ppm [2] was at least 80%, the pest or weed control at 200 ppm [3] was at least 80% and the inhibition of growth at 20 ppm [4] was at least 80%. For the same molecule, the pest or weed control at 200 ppm (Fusarium culmorum [5]) was at least 80% and the inhibition of growth at 20 ppm [7] was at least 80%.

With CC(C)(Cc1ccccc1)C(C)(C)NC(=O)c1cnc2c(F)cccc2c1 [E-21] the inhibition of growth at 20 ppm (Fusarium culmorum [1]) was at least 80%, the melting point was 131 to 132 °C and the inhibition of growth at 20 ppm [6] was at least 80%. It also gave a pest or weed control at 200 ppm [3] of at least 80%, an inhibition of growth at 20 ppm [4] of at least 80% and a pest or weed control at 200 ppm (Fusarium culmorum [5]) of at least 80%. It also gave an inhibition of growth at 20 ppm [7] of at least 80%.

Work on CC(C)CC(C)(CC(C)C)NC(=O)c1cnc2c(F)cccc2c1 [E-4] yielded an inhibition of growth at 20 ppm (Fusarium culmorum [1]) of at least 80%, a melting point of 139 to 142 °C and an inhibition of growth at 20 ppm [6] of at least 80%. For the same molecule, the inhibition of growth at 20 ppm [2] was at least 80%, the inhibition of growth at 20 ppm [4] was at least 80% and the inhibition of growth at 20 ppm (Sclerotinia sclerotiorum) was at least 80%.

C=C(C)CC(C)(CC1CCCCC1)NC(=O)c1cnc2c(F)c(F)ccc2c1 (centres unmarked) [E-48] showed an inhibition of growth at 20 ppm (Fusarium culmorum [1]) of at least 80%, a melting point of 115 to 117 °C and an inhibition of growth at 20 ppm [6] of at least 80%. The inhibition of growth at 20 ppm [2] was at least 80%, the inhibition of growth at 20 ppm [4] was at least 80% and the pest or weed control at 200 ppm (Fusarium culmorum [5]) was at least 80%. For the same molecule, the inhibition of growth at 20 ppm (Sclerotinia sclerotiorum) was at least 80% and the inhibition of growth at 20 ppm [7] was at least 80%.

In the case of CC(CC1CCCC1)(CC(F)(F)F)NC(=O)c1cnc2ccccc2c1 (centres unmarked) [E-63], the inhibition of growth at 20 ppm (Fusarium culmorum [1]) is reported as at least 80%, the melting point is reported as 94 to 103 °C and the inhibition of growth at 20 ppm [6] is reported as at least 80%. The inhibition of growth at 20 ppm [2] was at least 80%, the inhibition of growth at 20 ppm [4] was at least 80% and the pest or weed control at 200 ppm (Fusarium culmorum [5]) was at least 80%. For the same molecule, the inhibition of growth at 20 ppm (Sclerotinia sclerotiorum) was at least 80% and the inhibition of growth at 20 ppm [7] was at least 80%.

For C=C(C)CC(COC)(CC(=C)C)NC(=O)c1cnc2c(F)cccc2c1 [E-20], the inhibition of growth at 20 ppm (Fusarium culmorum [1]) was at least 80%, the melting point was 97 to 100 °C and the inhibition of growth at 20 ppm [6] was at least 80%. For the same molecule, the inhibition of growth at 20 ppm [2] was at least 80%, the inhibition of growth at 20 ppm [4] was at least 80% and the pest or weed control at 200 ppm (Fusarium culmorum [5]) was at least 80%. For the same molecule, the inhibition of growth at 20 ppm [7] was at least 80%.

C=C(C)CC(C)(CC(C)C)NC(=O)c1cnc2ccccc2c1 (centres unmarked) [E-12] gave an inhibition of growth at 20 ppm (Fusarium culmorum [1]) of at least 80%, a melting point of 89 to 91 °C and an inhibition of growth at 20 ppm [6] of at least 80%. The inhibition of growth at 20 ppm [2] was at least 80%, the inhibition of growth at 20 ppm [4] was at least 80% and the pest or weed control at 200 ppm (Fusarium culmorum [5]) was at least 80%. The inhibition of growth at 20 ppm [7] was at least 80%.

CC(C)(CCCc1ccccc1)NC(=O)c1cnc2c(F)cccc2c1 [E-23] showed an inhibition of growth at 20 ppm (Fusarium culmorum [1]) of at least 80%, an inhibition of growth at 20 ppm [2] of at least 80% and a pest or weed control at 200 ppm [3] of at least 80%. The inhibition of growth at 20 ppm [4] was at least 80%, the pest or weed control at 200 ppm (Fusarium culmorum [5]) was at least 80% and the inhibition of growth at 20 ppm [7] was at least 80%.

CC(CC1CCCCC1)(CC(F)(F)F)NC(=O)c1cnc2ccccc2c1 (centres unmarked) [E-60] gave an inhibition of growth at 20 ppm (Fusarium culmorum [1]) of at least 80%, a melting point of 70 to 87 °C and an inhibition of growth at 20 ppm [6] of at least 80%. It also gave an inhibition of growth at 20 ppm [2] of at least 80%, an inhibition of growth at 20 ppm [4] of at least 80% and a pest or weed control at 200 ppm (Fusarium culmorum [5]) of at least 80%. For the same molecule, the inhibition of growth at 20 ppm [7] was at least 80%.

For CC(CC1CC=CCC1)(CC(F)(F)F)NC(=O)c1cnc2ccccc2c1 (centres unmarked) [E-55], the inhibition of growth at 20 ppm (Fusarium culmorum [1]) was at least 80%, the melting point was 90 to 95 °C and the inhibition of growth at 20 ppm [6] was at least 80%. For the same molecule, the inhibition of growth at 20 ppm [2] was at least 80%, the inhibition of growth at 20 ppm [4] was at least 80% and the pest or weed control at 200 ppm (Fusarium culmorum [5]) was at least 80%. It also gave an inhibition of growth at 20 ppm [7] of at least 80%.

Molecule CC(CC1CC=CCC1)(CC(F)(F)F)NC(=O)c1cnc2c(F)cccc2c1 (centres unmarked) [E-54] has an inhibition of growth at 20 ppm (Fusarium culmorum [1]) of at least 80%, a melting point of 115 to 118 °C and an inhibition of growth at 20 ppm [6] of at least 80%. It also gave an inhibition of growth at 20 ppm [2] of at least 80%, an inhibition of growth at 20 ppm [4] of at least 80% and a pest or weed control at 200 ppm (Fusarium culmorum [5]) of at least 80%. For the same molecule, the inhibition of growth at 20 ppm (Sclerotinia sclerotiorum) was at least 80% and the inhibition of growth at 20 ppm [7] was at least 80%.
